# Test system: KRAS-mutant PDC tumor spheroid with HUVEC/MSC, viability
# Test: Anticancer human tumor 327498-153-R-J2-PDC patient-derived uterine carcinosarcoma cell line growth inhibition [KRAS2]
# Conditions: for IC50: curve of first compound; for viability, T/C: stronger effect = lower value
# From the text: Multicellular complex tumor spheroid response to RAS pathway inhibitors in combination with a targeted agents in patient-derived cell lines with oncogenic KRAS variants from multiple cancer types
# A high-throughput screen of multi-cell type tumor spheroids was designed to identify active combinations of targeted small molecules and KRAS pathway inhibitors. Complex spheroids include a stromal component modeled by human endothelial cells (HUVEC) and fibroblasts modeled by human mesenchymal stem cells (MSCs). The concentration ranges selected for each drug and investigational agent were based upon clinically achievable concentrations if the clinical Cmax of the agent was known.
# Compounds. The drugs and investigational agents: BI-3406 (NSC825286), BAY-293 (NSC824723), batoprotafib (TNO155; NSC825523), sotorasib (AMG 510; NSC818433), MRTX1257 (NSC819558), elimusertib (BAY 1895344; NSC800525), molibresib (GSK525762; NSC774829), temuterkib (LY3214996; NSC803410), venetoclax (NSC766270), alisertib (NSC759677), olaparib (NSC753686), talazoparib (NSC767125), erdafitinib (NSC781556), ipatasertib (NSC767898), cabozantinib (NSC761068), nintedanib (NSC756659), abemaciclib (NSC768073), docetaxel (NSC628503), trametinib (NSC758246), and sapanisertib (NSC764658) were obtained from the National Cancer Institute (NCI) Developmental Therapeutics Program Chemical Repository. The FDA-approved anticancer drug set is available from the Developmental Therapeutics Program. […] The stock solutions were prepared in dimethyl sulfoxide (DMSO, Sigma-Aldrich, St. Louis, MO, cat. D2650) at 800-fold the tested concentration and stored at -70 degrees C prior to their use. All drugs and investigational agents were tested over a range starting from a high concentration at or near the clinical Cmax and decreasing in half-log increments. If the clinical Cmax for an agent had not been determined, the highest concentration tested was 10 microM.
# Cell Culture. All cells were maintained in an incubator at 37 degrees C and 5% CO2 with 95% humidity. The PDC lines were cultured according to standard operating procedures established by the NCI PDMR (https://pdmr.cancer.gov/sops/default.htm). Briefly, all PDCs were thawed and cultured in Matrigel-coated flasks prepared with a working solution of 1X Ham's F-12 nutrient mix, without supplementation (Invitrogen, Waltham, MA, cat. 11765054), 100 U/mL penicillin-streptomycin (Invitrogen, cat. 15140122), and 2.5% Matrigel (Corning Inc., Corning, NY, cat. 354248) for the first three passages. All PDCs were cultured in complete DMEM/F-12 media containing advanced DMEM/F-12 (Invitrogen, cat. 12634028), 4.9% defined fetal bovine serum, heat inactivated (HyClone Laboratories Inc., Logan, UT, cat. SH30070.03HI), 389 ng/mL hydrocortisone (Sigma-Aldrich, cat. H4001), 9.7 ng/mL human EGF recombinant protein (Invitrogen, cat. PHG0313), 23.4 microg/mL adenine (Sigma-Aldrich, cat. A2786), 97.3 U/mL penicillin-streptomycin (Invitrogen, cat. 15140122), 1.9 mM L-glutamine (Invitrogen, cat. 25030081), and 9.7 microM Y-27632 dihydrochloride (Tocris Bioscience, Bristol, United Kingdom, cat. 1254). The PDCs were cultured in complete DMEM/F12 media without 9.7 microM Y-27632 dihydrochloride for at least two passages prior to the screen. The established cell line HOP-62 was cultured in RPMI 1640 medium, HEPES (Invitrogen, cat. 22400105) with 10% defined fetal bovine serum (HyClone Laboratories Inc., cat. SH30070.03) and 2 mM L-glutamine (Invitrogen, cat. 25030081). The pooled donor HUVEC were cultured in endothelial cell growth medium 2 (PromoCell, Heidelberg, Germany, cat. C-22011) and the hMSC were cultured in mesenchymal stem cell growth medium 2 (PromoCell, cat. C-28009). For all experiments, HUVEC and hMSC were used at passages </=5, while the malignant cell lines were used at passages </=15. […]
# [1] = second compound 0.1 µM, first compound 0.0316 µM
# [2] = second compound 0.1 µM, first compound 0.1 µM
# [3] = second compound 0.316 µM, first compound 0.0316 µM
# [4] = second compound 0.316 µM, first compound 0.1 µM
# [5] = second compound 1 µM, first compound 0.0316 µM
# [6] = second compound 1 µM, first compound 0.1 µM
# [7] = second compound 3.16 µM, first compound 0.0316 µM
# [8] = second compound 3.16 µM, first compound 0.1 µM
# [9] = second compound 10 µM, first compound 0.0316 µM
# [10] = second compound 10 µM, first compound 0.1 µM
# [11] = second compound 0.1 µM, first compound 0.316 µM
# [12] = second compound 0.1 µM, first compound 1 µM
# [13] = second compound 0.1 µM, first compound 3.16 µM
# [14] = second compound 0.1 µM, first compound 10 µM
# [15] = second compound 0.316 µM, first compound 0.316 µM
# [16] = second compound 0.316 µM, first compound 1 µM
# [17] = second compound 0.316 µM, first compound 3.16 µM
# [18] = second compound 0.316 µM, first compound 10 µM
# [19] = second compound 1 µM, first compound 0.316 µM
# [20] = second compound 1 µM, first compound 1 µM
# [21] = second compound 1 µM, first compound 3.16 µM
# [22] = second compound 1 µM, first compound 10 µM
# [23] = second compound 3.16 µM, first compound 0.316 µM
# [24] = second compound 3.16 µM, first compound 1 µM
# [25] = second compound 3.16 µM, first compound 3.16 µM
# [26] = second compound 3.16 µM, first compound 10 µM
# [27] = second compound 10 µM, first compound 0.316 µM
# [28] = second compound 10 µM, first compound 1 µM
# [29] = second compound 10 µM, first compound 3.16 µM
# [30] = second compound 10 µM, first compound 10 µM
# 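Note: spheroids exposed to agents for seven days before reading.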
# 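Throughout, for viability, T/C: 100% = DMSO vehicle wells so lower means fewer viable cells.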
structure (smiles),measurement,setting,value
CN(C)C/C=C/C(=O)Nc1cc2c(Nc3ccc(F)c(Cl)c3)ncnc2cc1O[C@H]1CCOC1 + C=CC(=O)N1CCN(c2nc(=O)n(-c3c(C)ccnc3C(C)C)c3nc(-c4c(O)cccc4F)c(F)cc23)C(C)C1,IC50,second compound 0.1 µM,< 0.316 nM
same,IC50,second compound 0.316 µM,> 100 nM
same,IC50,second compound 1 µM,> 100 nM
same,IC50,second compound 3.16 µM,> 100 nM
same,IC50,second compound 10 µM,> 100 nM
same,"viability, T/C","second compound 0.1 µM, first compound 0.000316 µM",86.9%
same,"viability, T/C","second compound 0.1 µM, first compound 0.001 µM",95.8%
same,"viability, T/C","second compound 0.1 µM, first compound 0.00316 µM",102%
same,"viability, T/C","second compound 0.1 µM, first compound 0.01 µM",101%
same,"viability, T/C",[1],110%
same,"viability, T/C",[2],109%
same,"viability, T/C","second compound 0.316 µM, first compound 0.000316 µM",87.5%
same,"viability, T/C","second compound 0.316 µM, first compound 0.001 µM",94.9%
same,"viability, T/C","second compound 0.316 µM, first compound 0.00316 µM",97%
same,"viability, T/C","second compound 0.316 µM, first compound 0.01 µM",106%
same,"viability, T/C",[3],116%
same,"viability, T/C",[4],115%
same,"viability, T/C","second compound 1 µM, first compound 0.000316 µM",85.5%
same,"viability, T/C","second compound 1 µM, first compound 0.001 µM",97.5%
same,"viability, T/C","second compound 1 µM, first compound 0.00316 µM",92.8%
same,"viability, T/C","second compound 1 µM, first compound 0.01 µM",101%
same,"viability, T/C",[5],115%
same,"viability, T/C",[6],103%
same,"viability, T/C","second compound 3.16 µM, first compound 0.000316 µM",82.6%
same,"viability, T/C","second compound 3.16 µM, first compound 0.001 µM",86.9%
same,"viability, T/C","second compound 3.16 µM, first compound 0.00316 µM",91.8%
same,"viability, T/C","second compound 3.16 µM, first compound 0.01 µM",96.7%
same,"viability, T/C",[7],99.2%
same,"viability, T/C",[8],96.7%
same,"viability, T/C","second compound 10 µM, first compound 0.000316 µM",87.2%
same,"viability, T/C","second compound 10 µM, first compound 0.001 µM",100%
same,"viability, T/C","second compound 10 µM, first compound 0.00316 µM",99.6%
same,"viability, T/C","second compound 10 µM, first compound 0.01 µM",105%
same,"viability, T/C",[9],111%
same,"viability, T/C",[10],115%
COC(=O)c1ccc2c(C(=Nc3ccc(N(C)C(=O)CN4CCN(C)CC4)cc3)c3ccccc3)c(O)[nH]c2c1 + C=CC(=O)N1CCN(c2nc(=O)n(-c3c(C)ccnc3C(C)C)c3nc(-c4c(O)cccc4F)c(F)cc23)C(C)C1,IC50,second compound 0.1 µM,68.6 nM
same,IC50,second compound 0.316 µM,< 31.6 nM
same,IC50,second compound 1 µM,< 31.6 nM
same,IC50,second compound 3.16 µM,< 31.6 nM
same,IC50,second compound 10 µM,< 31.6 nM
same,"viability, T/C",[1],55.6%
same,"viability, T/C",[2],47%
same,"viability, T/C",[11],33.8%
same,"viability, T/C",[12],21.5%
same,"viability, T/C",[13],8.48%
same,"viability, T/C",[14],8.12%
same,"viability, T/C",[3],48.5%
same,"viability, T/C",[4],46.1%
same,"viability, T/C",[15],31.3%
same,"viability, T/C",[16],12.5%
same,"viability, T/C",[17],6.86%
same,"viability, T/C",[18],4.83%
same,"viability, T/C",[5],46%
same,"viability, T/C",[6],44.4%
same,"viability, T/C",[19],27.5%
same,"viability, T/C",[20],16.6%
same,"viability, T/C",[21],7.4%
same,"viability, T/C",[22],3.38%
same,"viability, T/C",[7],42.4%
same,"viability, T/C",[8],35%
same,"viability, T/C",[23],19.1%
same,"viability, T/C",[24],11.5%
same,"viability, T/C",[25],6.26%
same,"viability, T/C",[26],4.47%
same,"viability, T/C",[9],39%
same,"viability, T/C",[10],31.1%
same,"viability, T/C",[27],22.9%
same,"viability, T/C",[28],13.2%
same,"viability, T/C",[29],3.4%
same,"viability, T/C",[30],1.04%
O=C(c1cc(Cc2n[nH]c(=O)c3ccccc23)ccc1F)N1CCN(C(=O)C2CC2)CC1 + C=CC(=O)N1CCN(c2nc(=O)n(-c3c(C)ccnc3C(C)C)c3nc(-c4c(O)cccc4F)c(F)cc23)C(C)C1,IC50,second compound 0.1 µM,970 nM
same,IC50,second compound 0.316 µM,713 nM
same,IC50,second compound 1 µM,588 nM
same,IC50,second compound 3.16 µM,488 nM
same,IC50,second compound 10 µM,< 31.6 nM
same,"viability, T/C",[1],60.2%
same,"viability, T/C",[2],57.3%
same,"viability, T/C",[11],65.3%
same,"viability, T/C",[12],48.8%
same,"viability, T/C",[13],23.6%
same,"viability, T/C",[14],16.3%
same,"viability, T/C",[3],59.5%
same,"viability, T/C",[4],59.4%
same,"viability, T/C",[15],57.5%
same,"viability, T/C",[16],46.8%
same,"viability, T/C",[17],21.9%
same,"viability, T/C",[18],15.2%
same,"viability, T/C",[5],66.3%
same,"viability, T/C",[6],60.1%
same,"viability, T/C",[19],56%
same,"viability, T/C",[20],46.2%
same,"viability, T/C",[21],26.5%
same,"viability, T/C",[22],16.4%
same,"viability, T/C",[7],66%
same,"viability, T/C",[8],61.2%
same,"viability, T/C",[23],51.7%
same,"viability, T/C",[24],46.4%
same,"viability, T/C",[25],22.6%
same,"viability, T/C",[26],18.2%
same,"viability, T/C",[9],49.5%
same,"viability, T/C",[10],48.2%
same,"viability, T/C",[27],47.3%
same,"viability, T/C",[28],36.3%
same,"viability, T/C",[29],24.8%
same,"viability, T/C",[30],18.9%

# From PubChem BioAssay AID1963867 (Molecular Pharmacology Branch, DTP, NCI, 2024)
